Assay type in all cases: biochemical
One assay deals with AChE (Homo sapiens, UniProt P22303). The assay can be described thus: Anticholinesterase activity, modified colorimetric Ellman method. Conditions: for inhibition at 100 µM / inhibition at 1000 µM: read-out: AChE % inhibition; for Selectivity and indexes: selective for AChE (over BChE). (In general: DTNB colorimetry detects thiols as they appear.)
For another assay, the target named is BChE (Homo sapiens, UniProt P06276). The assay is described as above. Conditions: for inhibition at 100 µM / inhibition at 1000 µM: read-out: BChE % inhibition.
The target in a further assay is T1, hMAO A (Homo sapiens, UniProt P21397).
T1 sequence (P21397 1-527): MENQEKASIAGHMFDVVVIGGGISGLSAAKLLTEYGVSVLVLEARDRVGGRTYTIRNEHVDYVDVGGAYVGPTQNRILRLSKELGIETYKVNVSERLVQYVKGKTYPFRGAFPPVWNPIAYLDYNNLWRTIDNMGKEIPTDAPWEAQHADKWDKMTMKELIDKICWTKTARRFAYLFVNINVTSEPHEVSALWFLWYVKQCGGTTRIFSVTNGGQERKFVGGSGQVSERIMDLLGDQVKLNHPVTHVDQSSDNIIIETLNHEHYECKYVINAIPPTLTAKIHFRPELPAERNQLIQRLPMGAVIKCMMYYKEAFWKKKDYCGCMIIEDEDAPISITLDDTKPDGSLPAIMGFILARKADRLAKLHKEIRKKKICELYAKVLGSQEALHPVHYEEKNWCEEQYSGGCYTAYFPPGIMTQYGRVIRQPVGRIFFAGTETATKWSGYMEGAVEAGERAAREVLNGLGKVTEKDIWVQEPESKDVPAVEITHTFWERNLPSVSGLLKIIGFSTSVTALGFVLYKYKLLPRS
The assay can be described thus: MAO A inhibition, fluorometric method. Conditions: for inhibition at 100 µM / inhibition at 1000 µM: read-out: MAO A % inhibition; for Selectivity and indexes: selective for MAO-A (over MAO B).

For a further assay, the target named is T2, recombinant hMAO B (Homo sapiens, UniProt P27338).
T2 sequence (P27338 1-520): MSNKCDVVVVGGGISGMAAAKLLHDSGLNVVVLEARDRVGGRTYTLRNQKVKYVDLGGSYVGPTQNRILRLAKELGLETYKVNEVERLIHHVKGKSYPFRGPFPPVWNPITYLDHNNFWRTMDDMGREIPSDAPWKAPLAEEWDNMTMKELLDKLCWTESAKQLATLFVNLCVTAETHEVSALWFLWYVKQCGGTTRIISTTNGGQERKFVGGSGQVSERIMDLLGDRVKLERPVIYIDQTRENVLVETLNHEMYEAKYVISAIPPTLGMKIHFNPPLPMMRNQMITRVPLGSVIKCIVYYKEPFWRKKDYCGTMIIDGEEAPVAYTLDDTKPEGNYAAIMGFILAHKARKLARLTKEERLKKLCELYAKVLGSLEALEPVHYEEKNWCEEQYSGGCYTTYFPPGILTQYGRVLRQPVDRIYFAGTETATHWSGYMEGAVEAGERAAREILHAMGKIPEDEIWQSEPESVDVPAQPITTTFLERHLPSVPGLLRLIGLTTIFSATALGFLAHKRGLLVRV
In words: MAO B inhibition, fluorometric method. Conditions: for inhibition at 100 µM / inhibition at 1000 µM: read-out: MAO B % inhibition; for Selectivity and indexes: selective for MAO-B (over MAO A).

Chain of AChE (P22303 32-614): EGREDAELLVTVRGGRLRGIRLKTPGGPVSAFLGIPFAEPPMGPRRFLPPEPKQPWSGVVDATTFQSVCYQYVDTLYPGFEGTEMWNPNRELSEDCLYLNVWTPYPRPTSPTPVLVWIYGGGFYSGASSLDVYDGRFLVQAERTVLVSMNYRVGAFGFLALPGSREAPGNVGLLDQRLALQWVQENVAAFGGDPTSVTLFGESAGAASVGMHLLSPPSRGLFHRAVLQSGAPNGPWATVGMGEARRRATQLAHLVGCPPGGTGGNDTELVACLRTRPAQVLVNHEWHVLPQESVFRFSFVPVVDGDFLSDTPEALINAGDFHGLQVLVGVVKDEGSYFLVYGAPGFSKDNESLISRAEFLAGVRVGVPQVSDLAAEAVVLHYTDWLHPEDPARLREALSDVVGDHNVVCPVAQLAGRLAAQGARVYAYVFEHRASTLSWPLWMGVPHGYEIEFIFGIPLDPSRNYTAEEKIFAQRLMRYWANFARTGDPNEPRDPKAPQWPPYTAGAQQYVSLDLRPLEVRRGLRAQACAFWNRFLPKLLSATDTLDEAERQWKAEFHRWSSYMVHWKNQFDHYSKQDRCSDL
Chain of BChE (P06276 29-602, species assumed): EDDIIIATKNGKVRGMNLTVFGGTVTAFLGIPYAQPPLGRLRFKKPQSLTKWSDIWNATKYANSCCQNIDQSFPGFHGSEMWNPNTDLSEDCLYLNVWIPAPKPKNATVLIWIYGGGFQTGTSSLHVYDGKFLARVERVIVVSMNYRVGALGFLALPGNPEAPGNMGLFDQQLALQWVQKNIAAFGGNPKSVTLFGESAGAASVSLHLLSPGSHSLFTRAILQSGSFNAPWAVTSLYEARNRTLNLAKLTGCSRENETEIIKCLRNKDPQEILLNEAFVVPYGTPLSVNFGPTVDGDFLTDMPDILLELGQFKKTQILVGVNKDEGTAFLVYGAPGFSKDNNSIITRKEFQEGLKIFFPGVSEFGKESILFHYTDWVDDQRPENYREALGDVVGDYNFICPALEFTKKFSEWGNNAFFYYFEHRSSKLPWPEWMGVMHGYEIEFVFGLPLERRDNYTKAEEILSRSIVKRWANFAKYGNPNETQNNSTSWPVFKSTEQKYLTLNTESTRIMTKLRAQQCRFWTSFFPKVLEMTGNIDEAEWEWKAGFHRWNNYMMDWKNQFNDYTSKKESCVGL

What is called IC50 is the concentration at which inhibition is half-maximal. Usually inhibition stands for the percentage by which the read-out fell short of the control. `C=CCN1CCN(CC(=O)Nc2ccc(C=CC(=O)c3ccc(OC)c(OC)c3)cc2)CC1` [Compound 4d, 2-(4-Allylpiperazin-1-yl)-N-(4-(3-(3,4-dimethoxyphenyl)-3-oxoprop-1-en-1-yl)phenyl)acetamide]: the IC50 against AChE is greater than 100 µM; at BChE it was greater than 1000 µM; against hMAO A, greater than 100 µM; at recombinant hMAO B (MAO B IC50, tables), greater than 1000 µM. Moreover, the inhibition at 100 µM came out at 40 ± 1.02% at AChE, 20.1 ± 0.964% on BChE, 41.4 ± 1.96% at hMAO A and 30.1 ± 0.957% on recombinant hMAO B. In addition, the inhibition at 1000 µM on AChE turned out to be 80.7 ± 3.34%; at BChE, 40.3 ± 1.21%; on hMAO A, 55 ± 2.06%; on recombinant hMAO B, 36.7 ± 1.04%. Further, on hMAO A, the Selectivity and indexes entry is given as “MAO-A/>10”.
Consider `COc1ccc(C(=O)C=Cc2ccc(NC(=O)CN3CCN(C(C)C)CC3)cc2)cc1OC` [Compound 4c, N-(4-(3-(3,4-Dimethoxyphenyl)-3-oxoprop-1-en-1-yl)phenyl)-2-(4-isopropylpiperazin-1-yl)acetamide], for which the IC50 was greater than 100 µM against AChE; greater than 1000 µM against BChE; greater than 1000 µM against hMAO A; greater than 1000 µM on recombinant hMAO B (MAO B IC50, tables). Also, the inhibition at 100 µM amounted to 48.2 ± 1.98% at AChE, 25.5 ± 1.1% at BChE, 39 ± 0.933% at hMAO A and 28.9 ± 1.02% at recombinant hMAO B. The inhibition at 1000 µM on AChE was found to be 79.2 ± 3.03%; on BChE it was 46 ± 1.92%; on hMAO A it was 47.4 ± 0.836%; on recombinant hMAO B it was 41.1 ± 0.941%.
As to `COc1ccc(C(=O)C=Cc2ccc(NC(=O)CN3CCN(CCCO)CC3)cc2)cc1OC` [Compound 4i, N-(4-(3-(3,4-Dimethoxyphenyl)-3-oxoprop-1-en-1-yl)phenyl)-2-(4-(3-hydroxypropyl)piperazin-1-yl)acetamide], the IC50 at AChE is 0.084 ± 0.003 µM; on BChE, greater than 1000 µM; at hMAO A, greater than 1000 µM; on recombinant hMAO B (MAO B IC50, tables), greater than 100 µM. The inhibition at 100 µM on AChE was determined as 90.5 ± 2.83%; on BChE, 23.6 ± 1.07%; on hMAO A, 29.1 ± 0.962%; on recombinant hMAO B it was 47.4 ± 1.62%. Also, the inhibition at 1000 µM at AChE is 94.2 ± 2.06%; at BChE, 39.6 ± 1.34%; at hMAO A, 41.1 ± 2.06%; on recombinant hMAO B, 74.1 ± 2.42%. In addition, the Selectivity and indexes result at AChE is “AChE/>1000”; at recombinant hMAO B, “MAO-B/>10”.
On to `COc1ccc(C(=O)C=Cc2ccc(NC(=O)CN3CCN(C4CCCC4)CC3)cc2)cc1OC` [Compound 4l, 2-(4-Cyclopentylpiperazin-1-yl)-N-(4-(3-(3,4-dimethoxyphenyl)-3-oxoprop-1-en-1-yl)phenyl)acetamide], for which the IC50 at AChE is greater than 100 µM; against BChE it was greater than 1000 µM; against hMAO A it was greater than 1000 µM; on recombinant hMAO B (MAO B IC50, tables) it was greater than 1000 µM. The inhibition at 100 µM at AChE came out at 40.3 ± 1.82%; at BChE, 32.7 ± 1.35%; at hMAO A it was 30.4 ± 1.25%; at recombinant hMAO B it was 29.7 ± 0.841%. For the same compound, the inhibition at 1000 µM amounted to 76.9 ± 2.36% on AChE, 41 ± 2% on BChE, 36.7 ± 0.984% at hMAO A and 46.7 ± 1.15% on recombinant hMAO B.
With `COc1ccc(C(=O)C=Cc2ccc(NC(=O)CN3CCN(CCN(C)C)CC3)cc2)cc1OC` [Compound 4j, N-(4-(3-(3,4-Dimethoxyphenyl)-3-oxoprop-1-en-1-yl)phenyl)-2-(4-(2-(dimethylamino)ethyl)piperazin-1-yl)acetamide], the IC50 was 0.043 ± 0.002 µM on AChE; greater than 1000 µM on BChE; greater than 1000 µM at hMAO A; greater than 100 µM at recombinant hMAO B (MAO B IC50, tables). Moreover, the inhibition at 100 µM on AChE came to 92.2 ± 3.48%; at BChE, 28.4 ± 1.16%; at hMAO A, 32.3 ± 1.14%; at recombinant hMAO B it was 40.1 ± 1.06%. Further, the inhibition at 1000 µM on AChE was 94 ± 1.94%; at BChE, 42.7 ± 2.06%; on hMAO A, 47.7 ± 1.94%; at recombinant hMAO B, 82.2 ± 3.03%. In addition, the figures for the Selectivity and indexes entry on AChE and on recombinant hMAO B were “AChE/>1000” and “MAO-B/>10”, respectively.
`COc1ccc(C(=O)C=Cc2ccc(NC(=O)CN3CCN(CCCN(C)C)CC3)cc2)cc1OC` [Compound 4k, N-(4-(3-(3,4-Dimethoxyphenyl)-3-oxoprop-1-en-1-yl)phenyl)-2-(4-(3-(dimethylamino)propyl)piperazin-1-yl)acetamide]: the IC50 is 0.039 ± 0.001 µM at AChE; greater than 1000 µM against BChE; greater than 100 µM on hMAO A; greater than 1000 µM at recombinant hMAO B (MAO B IC50, tables). Moreover, the inhibition at 100 µM on AChE is 94.1 ± 2.96%; at BChE, 29 ± 1.04%; at hMAO A, 41.3 ± 1.94%; at recombinant hMAO B, 36.1 ± 0.964%. Besides, the inhibition at 1000 µM at AChE came to 97.4 ± 2.81%; on BChE it was 46 ± 1.87%; at hMAO A, 63 ± 2.86%; on recombinant hMAO B, 48.7 ± 1.84%. Also, the values for the Selectivity and indexes result at AChE and at hMAO A were “AChE/>1000” and “MAO-A/>10”, respectively.
With `COCCN1CCN(CC(=O)Nc2ccc(C=CC(=O)c3ccc(OC)c(OC)c3)cc2)CC1` [Compound 4h, N-(4-(3-(3,4-Dimethoxyphenyl)-3-oxoprop-1-en-1-yl)phenyl)-2-(4-(2-methoxyethyl)piperazin-1-yl)acetamide], the IC50 was 0.12 ± 0.005 µM against AChE; greater than 1000 µM at BChE; greater than 100 µM against hMAO A; greater than 100 µM on recombinant hMAO B (MAO B IC50, tables). In addition, the inhibition at 100 µM on AChE is 86.5 ± 1.35%; at BChE it was 21.5 ± 0.874%; at hMAO A it was 28.6 ± 1.05%; at recombinant hMAO B it was 41.3 ± 0.916%. Moreover, the inhibition at 1000 µM is 90.6 ± 2.75% on AChE, 30.2 ± 1.13% on BChE, 59.9 ± 2.24% at hMAO A and 79.5 ± 2.86% on recombinant hMAO B. Besides, on AChE, the Selectivity and indexes result is given as “AChE/>1000”.
As to `COc1ccc(C(=O)C=Cc2ccc(NC(=O)CN3CCN(C)CC3)cc2)cc1OC` [Compound 4a, N-(4-(3-(3,4-Dimethoxyphenyl)-3-oxoprop-1-en-1-yl)phenyl)-2-(4-methylpiperazin-1-yl)acetamide], the IC50 was 0.068 ± 0.003 µM on AChE; greater than 1000 µM at BChE; greater than 1000 µM against hMAO A; 0.274 ± 0.012 µM on recombinant hMAO B (MAO B IC50, tables); less than 1 µM at recombinant hMAO B (MAO B IC50, text). For the same compound, the inhibition at 100 µM turned out to be 90.3 ± 1.86% at AChE, 24.6 ± 0.974% on BChE, 38.7 ± 1.06% on hMAO A and 80.5 ± 2.24% on recombinant hMAO B. In addition, the inhibition at 1000 µM at AChE was determined as 93.5 ± 3.16%; on BChE it was 42.5 ± 1.85%; at hMAO A, 47.7 ± 2.04%; at recombinant hMAO B, 84 ± 1.93%. In addition, the Selectivity and indexes result is given as “AChE/>1000” at AChE and “MAO-B/>1000” on recombinant hMAO B.
Take `COc1ccc(C(=O)C=Cc2ccc(NC(=O)CN3CCN(C=O)CC3)cc2)cc1OC` [Compound 4f, N-(4-(3-(3,4-Dimethoxyphenyl)-3-oxoprop-1-en-1-yl)phenyl)-2-(4-formylpiperazin-1-yl)acetamide]: the IC50 is 0.048 ± 0.002 µM against AChE; greater than 1000 µM on BChE; greater than 1000 µM at hMAO A; 0.137 ± 0.005 µM on recombinant hMAO B (MAO B IC50, tables); less than 1 µM on recombinant hMAO B (MAO B IC50, text). The inhibition at 100 µM on AChE was 94.8 ± 3.96%; on BChE, 24.3 ± 0.829%; on hMAO A, 28.8 ± 0.861%; at recombinant hMAO B, 88.6 ± 1.83%. For the same compound, the inhibition at 1000 µM is 96.8 ± 2.93% on AChE, 31.7 ± 1.37% at BChE, 40.8 ± 0.955% on hMAO A and 90.7 ± 2.62% on recombinant hMAO B. Moreover, the Selectivity and indexes entry on AChE was “AChE/>1000”; on recombinant hMAO B it was “MAO-B/>1000”. Also, the inhibition at 10 µM at recombinant hMAO B (read-out: MAO B inhibition) was 88.6 ± 1.83%.

(Values after publication PMC12560751 (RSC Advances, 2025).)
